Patent US9034901B2, “Pitavastatin calcium and process for its preparation” (Cadila Healthcare Limited, priority 2010, dated 2015)
Structures can show the parent of a compound that is named as a salt. Where two headings read alike, the source gives them in different places. Each block holds one compound with its values, some of them ahead of it.

What was measured:
[1] = cited from earlier work; for purity / water content / total impurities: US '987 A1 Table 1; for total impurities: in % (unit assumed)
[2] = test system: patients with hypercholesterolaemia; conditions: cited from earlier work
[3] = Stability of pitavastatin calcium crystalline form at 40° C./75% RH and 25° C./60% RH (water by KF, related substances); type: physicochemical
Method: In general, the stability of pitavastatin calcium crystalline form having water content 5% wt/wt at 40° C./75% RH and 25° C./60% RH is shown in Table-1.

[4] = kept at 40° C. (air tight), after 90 days
[5] = kept at 40° C. (air tight), initial
[6] = kept in open air, after 90 days
[7] = 1 month, 40° C. ± 2° C., RH 75% ± 5%
[8] = 2 month, 40° C. ± 2° C., RH 75% ± 5%
[9] = 3 month, 25° C. ± 2° C., RH 60% ± 5%
[10] = 3 month, 40° C. ± 2° C., RH 75% ± 5%

Related Substances: 5-oxo [3, 7]: 0.11%
Related Substances: Desflouro [3, 7]: 0.05%
Related Substances: Diastereomer [3, 7]: 0.11%
Related Substances: Total Impurities [3, 7]: 0.28%
Water by KF [3, 7]: 2.9 % w/w
Related Substances: 5-oxo [3, 8]: 0.15%
Related Substances: Desflouro [3, 8]: 0.05%
Related Substances: Diastereomer [3, 8]: 0.11%
Related Substances: Total Impurities [3, 8]: 0.31%
Water by KF [3, 8]: 4.3 % w/w
Related Substances: 5-oxo [3, 9]: 0.12%
Related Substances: Desflouro [3, 9]: 0.05%
Related Substances: Diastereomer [3, 9]: 0.12%
Related Substances: Lactone [3, 9]: 0.07%
Related Substances: Total Impurities [3, 9]: 0.36%
Water by KF [3, 9]: 3.9 % w/w
Related Substances: 5-oxo [3, 10]: 0.14%
Related Substances: Desflouro [3, 10]: 0.05%
Related Substances: Diastereomer [3, 10]: 0.11%
Related Substances: Lactone [3, 10]: 0.09%
Related Substances: Total Impurities [3, 10]: 0.39%
Water by KF [3, 10]: 4.2 % w/w
Related Substances: 5-oxo ([3]; Initial): 0.07%
Related Substances: Desflouro ([3]; Initial): 0.05%
Related Substances: Diastereomer ([3]; Initial): 0.17%
Related Substances: Total Impurities ([3]; Initial): 0.32%
Water by KF ([3]; Initial): 3.0 % w/w
Compound: O=C(O)C[C@H](O)C[C@H](O)/C=C/c1c(C2CC2)nc2ccccc2c1-c1ccc(F)cc1 [pitavastatin calcium, (3R,5S)-7-[2-cyclopropyl-4-(4-flourophenyl)-quinolin-3-yl]-3,5-dihydroxy-6-(E)-heptenoic acid calcium salt]
purity [1, 4]: 99.64
water content [1, 4]: 7.81%
total impurities [1, 4]: 0.211
purity [1, 5]: 99.38%
water content [1, 5]: about 7.89
total impurities [1, 5]: 0.179
purity [1, 6]: 96.49
water content [1, 6]: 1.77%
total impurities [1, 6]: 2.099
purity ([1]; kept in open air, initial): 99.38%
water content ([1]; kept in open air, initial): about 7.89
total impurities ([1]; kept in open air, initial): 0.179
stability during the storage ([1]; pitavastatin calcium which has become amorphous, reported in US '987 A1): very poor stability
safety and tolerability ([2]; treatment of patients with hypercholesterolaemia): safe and well tolerated

Compound: O=C(O)C[C@H](O)C[C@H](O)/C=C/c1c(C2CC2)nc2ccccc2c1-c1ccc(F)cc1 [pitavastatin]
potency ([2]; on the basis of reported data, dose-dependent): equivalent to that of atorvastatin
